Experiments:
[1] = native peptides; cited from earlier work
[2] = system: streptozotocin diabetic rats; experiment: Treatment of streptozotocin diabetic rats for 4 weeks; type: in vivo, Sprague-Dawley rats
Description: FIG. 45. […] Prior to treatment the blood glucose levels taken every 2 days for 6 days prior to treatment are between 300-600 mg/dl. After randomization the average blood sugar level of each group are between 421 and 433 mg/dl. Rats were treated every 2 days subcutaneously. […] Non-fasting sugar levels taken every 2 days were added together to obtain area under the curve (AUC) for each animal to average out cyclical variability in each animal.
FIG. 46. This is a graph showing the average body weight of streptozotocin diabetic rats at the end of the 4 week treatment period (+/−standard deviation; n=4) that started at 13th day after diabetes induction with 60 mg/kg streptozotocin. The starting weights of all animals prior to streptozotocin treatment are within 240 to 260 grams.
FIG. 47. […] The islets were located and the number of BrDU positive nuclei in each islet was counted.
Briefly for this in vivo protocol, 12-week old male Sprague-Dawley (HSD) rats (Harlan, Indianapolis, Ind.) were housed at 23±1° C. in a 12:12-h light:dark cycle, and were given access to food and water ad libitium (diet LM-485, Teklad, Madison, Wis.). […] Non-fasting blood sugar levels were monitored daily from day 2 by tail-tip snip blood collection (5 ul) and blood sugar levels were measured using Glucometer (Ascensia Elite, Bayer Co. Mishawaka, Ind.) and test strips (Bayer Co. Mishawaka, Ind.). […]

[3] = in vivo; cited from earlier work
DPP-8 = DPP-8 (Homo sapiens, UniProt Q6V1X1); details: concentrations approximating those from therapeutic doses; cited from earlier work
DPP-8, sequence (Q6V1X1 whole entry): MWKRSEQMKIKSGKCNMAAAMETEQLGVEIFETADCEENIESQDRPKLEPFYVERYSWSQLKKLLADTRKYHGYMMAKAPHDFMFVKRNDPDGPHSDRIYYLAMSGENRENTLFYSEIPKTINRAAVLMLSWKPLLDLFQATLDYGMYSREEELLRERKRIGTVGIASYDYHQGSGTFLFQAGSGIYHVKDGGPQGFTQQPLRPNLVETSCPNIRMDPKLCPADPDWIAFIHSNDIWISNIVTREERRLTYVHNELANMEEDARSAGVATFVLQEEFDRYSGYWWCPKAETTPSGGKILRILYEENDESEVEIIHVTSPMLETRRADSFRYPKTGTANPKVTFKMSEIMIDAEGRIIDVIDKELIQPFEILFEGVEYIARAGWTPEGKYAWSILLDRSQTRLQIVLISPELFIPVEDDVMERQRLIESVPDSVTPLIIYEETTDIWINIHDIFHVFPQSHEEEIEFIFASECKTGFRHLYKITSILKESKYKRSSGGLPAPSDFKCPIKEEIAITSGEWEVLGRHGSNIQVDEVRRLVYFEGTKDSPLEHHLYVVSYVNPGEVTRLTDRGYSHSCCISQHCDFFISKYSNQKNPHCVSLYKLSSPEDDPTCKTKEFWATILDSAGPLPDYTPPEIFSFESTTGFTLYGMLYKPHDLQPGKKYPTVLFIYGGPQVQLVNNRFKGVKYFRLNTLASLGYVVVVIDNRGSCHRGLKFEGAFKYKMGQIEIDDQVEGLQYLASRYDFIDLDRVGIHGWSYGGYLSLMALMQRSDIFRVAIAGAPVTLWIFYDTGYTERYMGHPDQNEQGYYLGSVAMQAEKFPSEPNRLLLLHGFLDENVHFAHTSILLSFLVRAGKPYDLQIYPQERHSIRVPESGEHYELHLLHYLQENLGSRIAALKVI

DPP-9 = DPP-9 (Homo sapiens, UniProt Q86TI2); details: concentrations approximating those from therapeutic doses; cited from earlier work
DPP-9, sequence (Q86TI2 whole entry): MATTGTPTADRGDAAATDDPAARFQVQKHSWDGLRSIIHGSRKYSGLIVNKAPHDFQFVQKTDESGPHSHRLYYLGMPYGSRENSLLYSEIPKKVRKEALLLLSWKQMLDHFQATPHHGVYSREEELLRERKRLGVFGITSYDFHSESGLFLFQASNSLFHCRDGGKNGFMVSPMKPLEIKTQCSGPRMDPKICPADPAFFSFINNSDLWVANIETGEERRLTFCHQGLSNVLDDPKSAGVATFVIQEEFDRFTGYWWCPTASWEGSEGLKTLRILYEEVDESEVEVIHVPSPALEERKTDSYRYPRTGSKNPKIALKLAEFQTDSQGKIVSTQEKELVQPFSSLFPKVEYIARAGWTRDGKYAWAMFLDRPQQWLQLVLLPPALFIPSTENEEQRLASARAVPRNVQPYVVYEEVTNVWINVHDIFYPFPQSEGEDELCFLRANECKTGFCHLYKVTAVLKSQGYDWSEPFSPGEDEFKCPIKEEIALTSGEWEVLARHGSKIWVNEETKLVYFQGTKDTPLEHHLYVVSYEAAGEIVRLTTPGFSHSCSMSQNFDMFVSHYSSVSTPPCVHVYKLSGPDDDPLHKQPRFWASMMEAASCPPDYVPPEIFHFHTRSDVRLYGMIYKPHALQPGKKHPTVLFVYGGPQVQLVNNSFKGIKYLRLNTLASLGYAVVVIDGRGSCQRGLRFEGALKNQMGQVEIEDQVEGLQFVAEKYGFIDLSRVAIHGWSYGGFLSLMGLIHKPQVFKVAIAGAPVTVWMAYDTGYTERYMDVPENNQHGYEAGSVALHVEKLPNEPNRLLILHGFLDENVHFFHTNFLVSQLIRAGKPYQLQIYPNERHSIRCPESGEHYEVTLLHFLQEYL

native gastrin: native peptide hormone with short biological half-life
biological half-life [1]: few minutes

CC[C@H](C)[C@H](NC(=O)[C@H](Cc1ccccc1)NC(=O)[C@H](CCC(=O)O)NC(=O)[C@H](CCCCN)NC(=O)[C@H](C)NC(=O)[C@H](C)NC(=O)[C@H](CCC(N)=O)NC(=O)CNC(=O)[C@H](CCC(=O)O)NC(=O)[C@H](CC(C)C)NC(=O)[C@H](Cc1ccc(O)cc1)NC(=O)[C@H](CO)NC(=O)[C@H](CO)NC(=O)[C@@H](NC(=O)[C@H](CC(=O)O)NC(=O)[C@H](CO)NC(=O)[C@@H](NC(=O)[C@H](Cc1ccccc1)NC(=O)[C@@H](NC(=O)CNC(=O)[C@H](CCC(=O)O)NC(=O)[C@H](C)NC(=O)[C@@H](N)Cc1c[nH]cn1)[C@@H](C)O)[C@@H](C)O)C(C)C)C(=O)N[C@@H](C)C(=O)N[C@@H](Cc1c[nH]c2ccccc12)C(=O)N[C@@H](CC(C)C)C(=O)N[C@H](C(=O)N[C@@H](CCCCN)C(=O)NCC(=O)N[C@@H](CCCNC(=N)N)C(N)=O)C(C)C [GLP-1, GLP-1 (7-36 amide)]
BrdU positive nuclei (cell divisions) in the islets ([2]; pancreas histology after 4 weeks, versus PBS or empty carrier): significantly more cell divisions
body weight at the end of the 4 week treatment ([2]; s.c. every 2 days for 4 weeks, 20 ug GLP-1): greater variability in response

COc1ccc2[nH]c([S+]([O-])Cc3ncc(C)c(OC)c3C)nc2c1 (stereo not drawn) [Omeprazole]
LD50 [3]: > 4000 mg/kg

N[C@@H](CC(=O)N1CCn2c(nnc2C(F)(F)F)C1)Cc1cc(F)c(F)cc1F [Sitagliptin, 7-[(3R)-3-amino-1-oxo-4-(2,4,5-trifluorophenyl)butyl]-5,6,7,8-tetrahydro-3-(trifluoromethyl)-1,2,4-triazolo[4,3-a]pyrazine phosphate (1:1) monohydrate]
inhibition of DPP-8 activity in vitro (DPP-8): does not inhibit
inhibition of DPP-9 activity in vitro (DPP-9): does not inhibit

Reference: patent US10507248B2, “Hydrophobic core carrier compositions for delivery of therapeutic agents, methods of making and using the same” (PharmaIn Corporation, priority 2005, dated 2019)
